In ChEMBL document CHEMBL1268854, “A Bisindole Alkaloid with Hedgehog Signal Inhibitory Activity from the Myxomycete Perichaena chrysosperma” (J Nat Prod, 2010):

How the values were obtained:
PANC-1 = test: Cytotoxicity against human PANC1 cells after 24 hrs; type: functional, cell-based; details: PANC-1, 24 h
[1] = Cytotoxicity against mouse C3H10T1/2 cells after 24 hrs; type: cell-based; details: C3H 10T1/2, 24 h
[2] = Inhibition of hedgehog signaling pathway in human HaCaT cells assessed as inhibition of GLI1-mediated transcriptional activity; type: cell-based
DU-145 = test: Cytotoxicity against human DU145 cells after 24 hrs; type: functional, cell-based; details: DU-145, 24 h

In the case of `COC1NC(=O)c2c1c1c3ccccc3[nH]c1c1[nH]c3cc(O)ccc3c21` (centres undefined), the IC50 (PANC-1) is reported as 5 µM, the IC50 [1] is reported as > 14 µM and the IC50 [2] is reported as 4.6 µM. For the same compound, the IC50 (DU-145) was 4.2 µM.
